Source: publication PMC2937036 (PLoS ONE, 2010)
Entries after “also recorded” stand apart in the source; their conditions may differ. Where a SMILES comes first, the peptide text is derived from it. Bridges are numbered along the chain shown (N, C = ends).

Columns and labels:
25% human male serum = details: 37°C, up to 540 min
in vitro = details: 25% human male serum; for intact peptide after 2 h: 37°C; for half-life at 5 µM / remaining at 6.5 h, 5 µM / remaining at 24 h, 5 µM: male, human
Description: To investigate the effects of the modifications on proteolytic susceptibility, the disappearance of the intact peptides incubated in diluted human serum at 37°C was followed by RP-HPLC. […] Incubations were normally done for 9 h and, in some cases, longer.
Peptide stabilities were assayed in diluted serum as previously described. 25% human male serum was centrifuged at 13,000 rpm for 10 min to remove lipids and the supernatant was collected and incubated at 37°C for at least 15 min. The assay was initiated upon the addition of the test peptide to the serum for a final peptide concentration of 5 µM. 200 µL aliquots of the incubations were taken for the following time points: 0, 30, 75, 120, 240, 390 and 540 min. The aliquots were mixed with 40 µL of 15% trichloroacetic acid (TCA) and incubated at 4°C for at least 15 min to precipitate serum proteins. In the case of Com5 and Com6, 5 µL of 1 M NaOH was supplemented to the TCA to prevent peptide precipitation. The supernatant was collected for each sample after centrifugation at 13,000 rpm for 10 min and stored at −20°C. These assays were performed in triplicate.
Reverse phase high performance liquid chromatography (RP-HPLC) analysis was performed with an AKTA Purifier from Amersham Biosciences (Westborough, MA) using an uRPC C2/C18 ST 4.6/100 column from Pharmacia Biotech (SanJose, CA) of the following dimensions: bed length 100 mm, i.d. 4.6 mm, 120Å. Individually thawed samples were injected through a 100 µL loop, after which a linear gradient was run from 100% solution A (0.05% trifluoroacetic acid (TFA) in filtered water) to 100% solution B (0.045% TFA in 90% acetonitrile) with a flow rate at 0.5 mL/min. The relative concentrations of the remaining soluble peptides were analyzed by the integration of the absorbance at 215 nm as a function of retention time using the Analysis module of the Unicorn software package.

[1] = system: Bacillus subtilis ATCC6633; test: Bactericidal assay (LD99.9), B. subtilis; format: cell-based; details: 10 mM phosphate buffer pH 7.0 with 1% TSB, 2 h, 37°C
Description: (§1) The peptides were tested for microbicidal activities against Bacillus subtilis ATCC6633, Escherichia coli ML35, and Staphylococcus aureus 42D as previously described. Suspensions of logarithmically growing test bacteria were incubated on a microtiter plate at a concentration of 10^5 colony-forming units/mL with various peptide dilutions. The medium was 100 µL of 10 mM phosphate buffer pH 7.0 supplemented with 1% (v/v) of tryptic soy broth (TSB). For later assays, human male serum was also added to a final concentration of 25%. 10 µL aliquots were collected at time 0 h and after 2 h of incubation on a rotary shaker (300 rpm) at 37°C. These were plated on blood agar plates and incubated overnight at 37°C. The Lethal Dose concentration (LD99.9) was determined, corresponding to the concentration killing >99.9% of the inoculum at 2 h. These experiments were performed in duplicate.
(§2) For the testing of the peptides' activities in different conditions, e.g. with serum, we use the same cut-off for activity as defined for Minimum Bactericidal Concentration (MBC), i.e. a 1000-fold reduction of the inoculum. However, we designate this peptide concentration with the more general term LD99.9 which can be applied to the specified conditions of the experiments performed here.

[2] = system: Staphylococcus aureus 42D; test: Bactericidal assay (LD99.9), S. aureus; format: cell-based; details: 10 mM phosphate buffer pH 7.0 with 1% TSB, 2 h, 37°C
Description: as §1, §2

Escherichia coli ML35 = test: Bactericidal assay (LD99.9), E. coli; format: cell-based; details: 10 mM phosphate buffer pH 7.0 with 1% TSB, 2 h, 37°C
Description: as §1, §2

[3] = system: Staphylococcus aureus 42D; test: Bactericidal assay (LD99.9), S. aureus in 25% human serum; format: cell-based; details: unit not given (Table 3 uses µM)
Description: In order to be able to make a direct comparison with our serum stability measurements, a few peptides were selected to be tested for antimicrobial activity in 25% human serum (Table 4). […] All LD99.9 values are higher compared to the initial assays in 10 mM sodium phosphate buffer. Contributing factors to this general loss in activity could be the increased ionic concentration, interactions with serum components such as albumin or other proteins, and peptide degradation. Both hexamers with unprotected termini, Lfc1 and Com1, are no longer active while the cyclized short peptides remained fairly antimicrobial. In human serum, Lfc5 and Lfc6 are equally anti-staphylococcal. This reflects a greater loss of activity for Lfc6, but also coincides with the lower serum stability that this peptide has compared to Lfc5 (Fig. 2C). The activities of the cyclized Com peptides were all lowered equally with a 16-fold increase in LD99.9 values compared to activities in serum-excluded media and this agrees with their similar stability profiles (Fig. 2D).
as §1, §2

[4] = set-up: method as in PMID 15853943; details: ITC; cited from earlier work
[5] = target: human serum albumin (HSA) (Homo sapiens, UniProt P02768); test: biochemical
Chain of human serum albumin (HSA) (P02768 25-609): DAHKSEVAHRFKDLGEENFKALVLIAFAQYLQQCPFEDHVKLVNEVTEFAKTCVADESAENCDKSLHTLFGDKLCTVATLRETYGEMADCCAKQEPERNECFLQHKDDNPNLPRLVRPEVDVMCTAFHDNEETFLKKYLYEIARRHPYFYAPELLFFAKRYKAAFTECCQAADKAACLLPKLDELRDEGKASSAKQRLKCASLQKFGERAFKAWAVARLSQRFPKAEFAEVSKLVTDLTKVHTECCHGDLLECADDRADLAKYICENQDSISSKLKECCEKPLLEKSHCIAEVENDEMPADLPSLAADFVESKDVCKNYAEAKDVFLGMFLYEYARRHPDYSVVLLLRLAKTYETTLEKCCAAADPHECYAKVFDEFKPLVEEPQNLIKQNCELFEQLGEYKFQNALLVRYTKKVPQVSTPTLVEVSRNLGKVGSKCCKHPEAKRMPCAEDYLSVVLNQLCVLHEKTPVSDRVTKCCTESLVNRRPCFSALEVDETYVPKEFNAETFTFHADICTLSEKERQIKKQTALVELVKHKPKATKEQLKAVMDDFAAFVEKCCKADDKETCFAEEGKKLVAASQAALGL
Description: The potential for interactions between various peptides and bovine and human serum albumin (BSA and HSA) were studied by microcalorimetry.
ITC experiments were performed at 25°C on a Microcal VP-ITC microcalorimeter with data analysis performed with the Microcal Origin software. The sample cell contained 0.1 mM of either BSA or HSA dissolved in 20 mM HEPES, 100 mM NaCl, pH 7.9. The syringe was loaded with 2 mM test peptide in the same buffer, and each titration point resulted from 5 µL injections following an initial 2 µL injection. Separate control experiments were also performed to account for heats of dilution/mixing.

| Molecule | fragment found (25% human male serum) | half-life at 5 µM (in vitro) [h] | 99.9% Lethal Dose Concentration (LD99.9) B. subtilis [1] [µM] | 99.9% Lethal Dose Concentration (LD99.9) S. aureus [2] [µM] | 99.9% Lethal Dose Concentration (LD99.9) E. coli (Escherichia coli ML35) [µM] | LD99.9 anti-S. aureus in 25% human serum [3] | further results |
| --- | --- | --- | --- | --- | --- | --- | --- |
| -RRWQWR- (cyclo(RRWQWR); SMILES N=C(N)NCCC[C@@H]1NC(=O)[C@H](CCCNC(=N)N)NC(=O)[C@H](Cc2c[nH]c3ccccc23)NC(=O)[C@H](CCC(N)=O)NC(=O)[C@H](Cc2c[nH]c3ccccc23)NC(=O)[C@H](CCCNC(=N)N)NC1=O) | Single Cut, 75 min |  |  |  |  |  |  |
| CC(=O)N[C@@H](CCCNC(=N)N)C(=O)N[C@@H](CCCNC(=N)N)C(=O)N[C@@H](Cc1c[nH]c2ccccc12)C(=O)N[C@@H](CCC(N)=O)C(=O)N[C@@H](Cc1c[nH]c2ccccc12)C(=O)N[C@@H](CCCNC(=N)N)C(=O)O [Lfc3, CH3CO-RRWQWR] (Ac-RRWQWR-OH) |  | ~1 | 60 | >120 | 120 |  | intact peptide after 2 h (in vitro): almost fully degraded |
| N=C(N)NCCC[C@H](NC(=O)[C@H](Cc1c[nH]c2ccccc12)NC(=O)[C@H](CCC(N)=O)NC(=O)[C@H](Cc1c[nH]c2ccccc12)NC(=O)[C@H](CCCNC(=N)N)NC(=O)[C@@H](N)CCCNC(=N)N)C(=O)O [Lfc1, RRWQWR] (H-RRWQWR-OH) |  | < 0.5 | 7.5 | 30 | 60 | >120 | intact peptide after 2 h (in vitro): completely gone |
| N=C(N)NCCC[C@@H]1NC(=O)[C@H](Cc2c[nH]c3ccccc23)NC(=O)[C@H](Cc2c[nH]c3ccccc23)NC(=O)[C@H](CCCNC(=N)N)NC(=O)[C@H](CCCNC(=N)N)NC(=O)[C@@H](N)CSSC[C@@H](C(N)=O)NC(=O)[C@H](Cc2ccccc2)NC1=O [Com6, CRRWWRFC-NH2] (H-CRRWWRFC-NH2; disulfide 1-8) |  |  | 0.9 | 0.9 | 3.8 | 15 | remaining at 6.5 h, 5 µM (in vitro): ~50% |
| RRWQWRMKKLG | RWQWRM, 75 min; also recorded: WQWRM, 75 min |  |  |  |  |  |  |
| N=C(N)NCCC[C@@H]1NC(=O)[C@H](CCCNC(=N)N)NC(=O)[C@H](Cc2ccccc2)NC(=O)[C@H](CCCNC(=N)N)NC(=O)[C@H](Cc2c[nH]c3ccccc23)NC(=O)[C@H](Cc2c[nH]c3ccccc23)NC1=O [Com5, -RRWWRF-] (cyclo(RRWWRF)) |  |  | ≤0.45 | 7.5 | 30 | 30 | remaining at 6.5 h, 5 µM (in vitro): > 70%; remaining at 24 h, 5 µM (in vitro): ~50% |
| -RRWQWRMKKLG- (cyclo(RRWQWRMKKLG); SMILES CSCC[C@@H]1NC(=O)[C@H](CCCNC(=N)N)NC(=O)[C@H](Cc2c[nH]c3ccccc23)NC(=O)[C@H](CCC(N)=O)NC(=O)[C@H](Cc2c[nH]c3ccccc23)NC(=O)[C@H](CCCNC(=N)N)NC(=O)[C@H](CCCNC(=N)N)NC(=O)CNC(=O)[C@H](CC(C)C)NC(=O)[C@H](CCCCN)NC(=O)[C@H](CCCCN)NC1=O) | Single Cut, 75 min |  |  |  |  |  |  |
| N=C(N)NCCC[C@@H]1NC(=O)[C@H](CCCNC(=N)N)NC(=O)[C@H](Cc2c[nH]c3ccccc23)NC(=O)[C@H](CCC(N)=O)NC(=O)[C@H](Cc2c[nH]c3ccccc23)NC(=O)[C@H](CCCNC(=N)N)NC1=O [Lfc5, -RRWQWR-] (cyclo(RRWQWR)) |  |  | 1.9 | 7.5 | 7.5 | 60 | remaining at 6.5 h, 5 µM (in vitro): > 70%; remaining at 24 h, 5 µM (in vitro): ~50% |
| Ac-RRWWRF-NH2 | CH3CO-RRWW, 75 min; also recorded: CH3CO-RRW, 75 min |  |  |  |  |  |  |
| CC(=O)N[C@@H](CCCNC(=N)N)C(=O)N[C@@H](CCCNC(=N)N)C(=O)N[C@@H](Cc1c[nH]c2ccccc12)C(=O)N[C@@H](Cc1c[nH]c2ccccc12)C(=O)N[C@@H](CCCNC(=N)N)C(=O)N[C@@H](Cc1ccccc1)C(N)=O [Com4, CH3CO-RRWWRF-NH2] (Ac-RRWWRF-NH2) |  | ~1.5 | 0.9 | 7.5 | 7.5 |  | affinity for negatively charged membranes [4]: micromolar affinity |
| CSCC[C@@H]1NC(=O)[C@H](CCCNC(=N)N)NC(=O)[C@H](Cc2c[nH]c3ccccc23)NC(=O)[C@H](CCC(N)=O)NC(=O)[C@H](Cc2c[nH]c3ccccc23)NC(=O)[C@H](CCCNC(=N)N)NC(=O)[C@H](CCCNC(=N)N)NC(=O)CNC(=O)[C@H](CC(C)C)NC(=O)[C@H](CCCCN)NC(=O)[C@H](CCCCN)NC1=O [Lfc8, -RRWQWRMKKLG-] (cyclo(RRWQWRMKKLG)) |  |  | ≤0.45 | 15 | 3.8 |  | Kd [5]: 150 µM |
| Ac-RRWQWR-OH | CH3CO-RRWQ, 75 min; also recorded: CH3CO-RRW, 75 min |  |  |  |  |  |  |
| CC(=O)N[C@@H](CCCNC(=N)N)C(=O)N[C@@H](CCCNC(=N)N)C(=O)N[C@@H](Cc1c[nH]c2ccccc12)C(=O)N[C@@H](Cc1c[nH]c2ccccc12)C(=O)N[C@@H](CCCNC(=N)N)C(=O)N[C@@H](Cc1ccccc1)C(=O)O [Com3, CH3CO-RRWWRF] (Ac-RRWWRF-OH) |  | ~1 | 7.5 | 30 | 120 |  | intact peptide after 2 h (in vitro): almost fully degraded |
| CC(=O)N[C@@H](CCCNC(=N)N)C(=O)N[C@@H](CCCNC(=N)N)C(=O)N[C@@H](Cc1c[nH]c2ccccc12)C(=O)N[C@@H](CCC(N)=O)C(=O)N[C@@H](Cc1c[nH]c2ccccc12)C(=O)N[C@@H](CCCNC(=N)N)C(N)=O [Lfc4, CH3CO-RRWQWR-NH2] (Ac-RRWQWR-NH2) |  | ~1.5 | 3.8 | 60 | 15 |  |  |
| Ac-RRWQWR-NH2 | CH3CO-RRWQ, 75 min; also recorded: CH3CO-RRW, 75 min |  |  |  |  |  |  |
| N=C(N)NCCC[C@H](NC(=O)[C@H](Cc1c[nH]c2ccccc12)NC(=O)[C@H](Cc1c[nH]c2ccccc12)NC(=O)[C@H](CCCNC(=N)N)NC(=O)[C@@H](N)CCCNC(=N)N)C(=O)N[C@@H](Cc1ccccc1)C(=O)O [Com1, RRWWRF] (H-RRWWRF-OH) |  | < 0.5 | 1.9 | 7.5 | 60 | >120 | intact peptide after 2 h (in vitro): completely gone |
| N=C(N)NCCC[C@@H]1NC(=O)[C@H](Cc2c[nH]c3ccccc23)NC(=O)[C@H](CCC(N)=O)NC(=O)[C@H](Cc2c[nH]c3ccccc23)NC(=O)[C@H](CCCNC(=N)N)NC(=O)[C@H](CCCNC(=N)N)NC(=O)[C@@H](N)CSSC[C@@H](C(N)=O)NC1=O [Lfc6, CRRWQWRC-NH2] (H-CRRWQWRC-NH2; disulfide 1-8) |  |  |  |  |  | 60 |  |
